The NIST ThermoML archive (doi:10.1021/je030191w)
± gives the expanded uncertainty stated by the source.

Assay: xn = mol fraction of the nth substance listed
Conditions: 101 kPa, Liquid

CCn1cc[n+](C)c1.F[B-](F)(F)F [1-ethyl-3-methylimidazolium tetrafluoroborate] + O
Conditions	mass density [kg/m3]	viscosity [mPa·s]
293.15 K, x2 = 0	1340.7 ± 50	45.29 ± 2.9
293.15 K, x2 = 0.0995	1336.1 ± 50	34.43 ± 2.3
293.15 K, x2 = 0.2062	1330 ± 50	25.1 ± 1.7
293.15 K, x2 = 0.3047	1322.9 ± 50	19.25 ± 1.3
293.15 K, x2 = 0.4034	1313.4 ± 50	13.76 ± 0.98
293.15 K, x2 = 0.5034	1299.8 ± 50	10.36 ± 0.77
293.15 K, x2 = 0.5998	1284.2 ± 50	7.892 ± 0.61
293.15 K, x2 = 0.7005	1262 ± 50	5.797 ± 0.48
293.15 K, x2 = 0.8011	1225.9 ± 50	4.127 ± 0.36
293.15 K, x2 = 0.9027	1157.4 ± 50	3.035 ± 0.27
298.15 K, x2 = 0	1336.7 ± 50	37.19 ± 2.4
298.15 K, x2 = 0.0995	1332.1 ± 50	29.02 ± 1.9
298.15 K, x2 = 0.2062	1326 ± 50	21.01 ± 1.4
298.15 K, x2 = 0.3047	1318.9 ± 50	15.96 ± 1.1
298.15 K, x2 = 0.4034	1309.5 ± 50	11.45 ± 0.84
298.15 K, x2 = 0.5034	1296 ± 50	8.597 ± 0.66
298.15 K, x2 = 0.5998	1280.6 ± 50	6.975 ± 0.56
298.15 K, x2 = 0.7005	1258.4 ± 50	4.822 ± 0.42
298.15 K, x2 = 0.8011	1222.3 ± 50	3.499 ± 0.31
298.15 K, x2 = 0.9027	1154.2 ± 50	2.584 ± 0.23
303.15 K, x2 = 0	1332.9 ± 50	31.36 ± 2.1
303.15 K, x2 = 0.0995	1328.3 ± 50	24.8 ± 1.7
303.15 K, x2 = 0.2062	1322.2 ± 50	17.9 ± 1.2
303.15 K, x2 = 0.3047	1315.2 ± 50	13.58 ± 0.97
303.15 K, x2 = 0.4034	1305.8 ± 50	9.674 ± 0.72
303.15 K, x2 = 0.5034	1292.3 ± 50	7.384 ± 0.58
303.15 K, x2 = 0.5998	1276.9 ± 50	5.492 ± 0.47
303.15 K, x2 = 0.7005	1254.8 ± 50	3.896 ± 0.34
303.15 K, x2 = 0.8011	1218.7 ± 50	2.962 ± 0.27
303.15 K, x2 = 0.9027	1151.1 ± 50	2.189 ± 0.2
308.15 K, x2 = 0	1329.6 ± 50	25.56 ± 1.7
308.15 K, x2 = 0.0995	1324.9 ± 50	20.53 ± 1.4
308.15 K, x2 = 0.2062	1318.9 ± 50	14.58 ± 1
308.15 K, x2 = 0.3047	1311.9 ± 50	10.93 ± 0.8
308.15 K, x2 = 0.4034	1302.5 ± 50	8.187 ± 0.63
308.15 K, x2 = 0.5034	1288.9 ± 50	6.409 ± 0.52
308.15 K, x2 = 0.5998	1273.5 ± 50	4.707 ± 0.41
308.15 K, x2 = 0.7005	1251.4 ± 50	3.531 ± 0.31
308.15 K, x2 = 0.8011	1215.4 ± 50	2.555 ± 0.23
308.15 K, x2 = 0.9027	1148 ± 50	1.898 ± 0.17
313.15 K, x2 = 0	1325.9 ± 50	21.54 ± 1.5
313.15 K, x2 = 0.0995	1321.2 ± 50	17.96 ± 1.2
313.15 K, x2 = 0.2062	1315.2 ± 50	12.68 ± 0.91
313.15 K, x2 = 0.3047	1308.1 ± 50	9.634 ± 0.72
313.15 K, x2 = 0.4034	1298.7 ± 50	7.165 ± 0.57
313.15 K, x2 = 0.5034	1285.3 ± 50	5.465 ± 0.46
313.15 K, x2 = 0.5998	1269.7 ± 50	4.159 ± 0.36
313.15 K, x2 = 0.7005	1247.5 ± 50	3.133 ± 0.28
313.15 K, x2 = 0.8011	1211.8 ± 50	2.267 ± 0.21
313.15 K, x2 = 0.9027	1145 ± 50	1.689 ± 0.16
318.15 K, x2 = 0	1322.2 ± 50	18.84 ± 1.3
318.15 K, x2 = 0.0995	1317.6 ± 50	15.93 ± 1.1
318.15 K, x2 = 0.2062	1311.6 ± 50	11.16 ± 0.82
318.15 K, x2 = 0.3047	1304.5 ± 50	8.324 ± 0.64
318.15 K, x2 = 0.4034	1295 ± 50	6.357 ± 0.52
318.15 K, x2 = 0.5034	1281.6 ± 50	4.979 ± 0.43
318.15 K, x2 = 0.5998	1266 ± 50	3.63 ± 0.32
318.15 K, x2 = 0.7005	1243.9 ± 50	2.584 ± 0.23
318.15 K, x2 = 0.8011	1208.2 ± 50	2.044 ± 0.19
318.15 K, x2 = 0.9027	1141.8 ± 50	1.53 ± 0.14
323.15 K, x2 = 0	1319.5 ± 50	15.9 ± 1.1
323.15 K, x2 = 0.0995	1314.8 ± 50	13.74 ± 0.98
323.15 K, x2 = 0.2062	1308.8 ± 50	9.797 ± 0.73
323.15 K, x2 = 0.3047	1301.6 ± 50	7.47 ± 0.59
323.15 K, x2 = 0.4034	1292 ± 50	5.692 ± 0.48
323.15 K, x2 = 0.5034	1278.6 ± 50	4.522 ± 0.4
323.15 K, x2 = 0.5998	1263.1 ± 50	3.215 ± 0.29
323.15 K, x2 = 0.7005	1240.7 ± 50	2.512 ± 0.23
323.15 K, x2 = 0.8011	1205 ± 50	1.904 ± 0.18
323.15 K, x2 = 0.9027	1138.5 ± 50	1.439 ± 0.14
